Measurements as given in patent publication US4492693A, “Benzothienylglycyl cephalosporin derivatives” (priority 1983, dated 1985).
Values after ≈ are worked out from the molar mass of the structure shown. Read-outs that look alike come from different tables or passages of the source.

Columns and labels:
Assay type in all cases: cell-based
H. influ. = test: Agar Dilution MIC (Table I); conditions: read-out: Agar Dilution MIC
Staph. aureus = test: Agar Dilution MIC (Table I); conditions: Staphylococcus aureus
E. coli = test: Agar Dilution MIC (Table I); conditions: Escherichia coli
Klebsiella = test: Agar Dilution MIC (Table I); conditions: Klebsiella, read-out: Agar Dilution MIC
Staph. epi = test: Agar Dilution MIC (Table I); conditions: read-out: Agar Dilution MIC
Strep. PN = test: Agar Dilution MIC (Table I); conditions: strain PARK
Strep. D = test: Agar Dilution MIC (Table I); conditions: for MIC: read-out: Agar Dilution MIC
Excerpt: A typical and preferred compound provided by this invention is 7-(3-benzothienyl)glycylamido-3-methyl-3-cephem-4-carboxylic acid, the compound illustrated in Example 9. The antibacterial activity of this compound has been determined in standard in vitro agar dilution assays against a variety of gram positive and gram negative microorganism. The following Tables present typical minimum inhibitory concentrations (MIC's) in μg/ml for several compounds of the invention when evaluated against the indicated microorganisms. MIC's for several known compounds are also presented for comparison.
Agar Dilution MIC (μg/ml)

Strep. A = test: Agar Dilution MIC (Table I); conditions: read-out: Agar Dilution MIC
Haemophilus influenzae = test: Expanded H. influenzae Spectrum MIC (Table IV)
Bacteroides fragilis = test: Expanded anaerobic Spectrum MIC (Table IV)
[1] = strain V41, read-out: Agar Dilution MIC
[2] = strain X1.1, read-out: Agar Dilution MIC
[3] = strain X400, read-out: Agar Dilution MIC
[4] = geometric mean over strains, read-out: MIC Geometric Mean
[5] = mean over strains, read-out: MIC mean
[6] = geometric mean over strains, read-out: MIC Geometric mean

Row | SMILES | MIC (H. influ.; strain 76) | MIC (H. influ.; strain C.L.) | MIC (Staph. aureus; [1]) | MIC (Staph. aureus; [2]) | MIC (Staph. aureus; [3]) | MIC (E. coli; strain EC14) | MIC (E. coli; strain N10) | MIC (E. coli; strain TEM) | MIC (Klebsiella; strain KAE) | MIC (Klebsiella; strain X26) | MIC (Klebsiella; strain X68) | MIC (Staph. epi; strain 222) | MIC (Staph. epi; strain EPI1) | MIC (Strep. PN) | MIC (Strep. D; strain 2041) | MIC (Strep. D; strain X66) | MIC (Strep. A; strain C203) | MIC (Haemophilus influenzae; [4]) | MIC (Haemophilus influenzae; [5]) | MIC (Haemophilus influenzae; strain 112, read-out: MIC) | further results
1 | CC1=C(C(=O)O)N2C(=O)C(NC(=O)[C@@H](N)c3csc4cc(Cl)ccc34)C2SC1 (stereo partly drawn) [Ex. 37A, L-7-(6-Chloro-3-benzothienyl)glycylamido-3-methyl-3-cephem-4-carboxylic acid] | 2 µg/mL (≈ 4.57 µM) | 128 µg/mL (≈ 292 µM) | 64 µg/mL (≈ 146 µM) | 16 µg/mL (≈ 36.5 µM) | 128 µg/mL (≈ 292 µM) | 128 µg/mL (≈ 292 µM) | 128 µg/mL (≈ 292 µM) | 128 µg/mL (≈ 292 µM) | 128 µg/mL (≈ 292 µM) | 64 µg/mL (≈ 146 µM) | 128 µg/mL (≈ 292 µM) | 32 µg/mL (≈ 73.1 µM) | 64 µg/mL (≈ 146 µM) | 16 µg/mL (≈ 36.5 µM) | 128 µg/mL (≈ 292 µM) | 128 µg/mL (≈ 292 µM) | 4 µg/mL (≈ 9.13 µM) |  |  |  | MIC (Staph. aureus; read-out: Agar Dilution MIC, strain S13E): 64 µg/mL (≈ 146 µM)
2 | C=CC1=C(C(=O)O)N2C(=O)C(NC(=O)[C@H](N)c3csc4ccccc34)C2SC1 (stereo partly drawn) [Ex. 35, D-7-(3-Benzothienylglycylamido)-3-vinyl-3-cephem-4-carboxylic acid] | 1 µg/mL (≈ 2.41 µM) | 8 µg/mL (≈ 19.3 µM) | 16 µg/mL (≈ 38.5 µM) | 2 µg/mL (≈ 4.81 µM) | 32 µg/mL (≈ 77 µM) | 128 µg/mL (≈ 308 µM) | 128 µg/mL (≈ 308 µM) | 128 µg/mL (≈ 308 µM) | 128 µg/mL (≈ 308 µM) | 8 µg/mL (≈ 19.3 µM) | 128 µg/mL (≈ 308 µM) | 2 µg/mL (≈ 4.81 µM) | 8 µg/mL (≈ 19.3 µM) |  | 32 µg/mL (≈ 77 µM) | 64 µg/mL (≈ 154 µM) |  |  |  |  | 
3 | CC1=C(C(=O)O)N2C(=O)C(NC(=O)C(N)c3cc4ccccc4s3)C2SC1 (centres unmarked) [Compound B, 7-(2-benzothienyl)glycylamido-3-methyl-3-cephem-4-carboxylic acid] |  |  |  |  |  |  |  |  |  |  |  |  |  |  |  |  |  | 2 µg/mL (≈ 4.96 µM) | 3 µg/mL (≈ 7.44 µM) | 8 µg/mL (≈ 19.8 µM) | MIC (Haemophilus influenzae; strain 102): 16 µg/mL (≈ 39.7 µM); MIC (Haemophilus influenzae; strain 104, read-out: MIC): 2 µg/mL (≈ 4.96 µM); MIC (Haemophilus influenzae; strain 107): 4 µg/mL (≈ 9.91 µM); MIC (Haemophilus influenzae; strain 109, read-out: MIC): 1 µg/mL (≈ 2.48 µM); MIC (Haemophilus influenzae; strain 110): 4 µg/mL (≈ 9.91 µM); MIC (Haemophilus influenzae; strain 113, read-out: MIC): 2 µg/mL (≈ 4.96 µM); MIC (Haemophilus influenzae; strain 114, read-out: MIC): 2 µg/mL (≈ 4.96 µM); MIC (Bacteroides fragilis; [6]): 15 µg/mL (≈ 37.2 µM); MIC (Bacteroides fragilis; [5]): 27 µg/mL (≈ 66.9 µM); MIC (Bacteroides fragilis; strain 180-821, read-out: MIC): 2 µg/mL (≈ 4.96 µM); MIC (Bacteroides fragilis; strain 10668, read-out: MIC): 64 µg/mL (≈ 159 µM); MIC (Bacteroides fragilis; strain 10695, read-out: MIC): 16 µg/mL (≈ 39.7 µM); MIC (Bacteroides fragilis; strain 10732, read-out: MIC): 4 µg/mL (≈ 9.91 µM); MIC (Bacteroides fragilis; strain 10750, read-out: MIC): 64 µg/mL (≈ 159 µM); MIC (Bacteroides fragilis; strain 10774, read-out: MIC): 64 µg/mL (≈ 159 µM); MIC (Bacteroides fragilis; strain 10817, read-out: MIC): 4 µg/mL (≈ 9.91 µM); MIC (Bacteroides fragilis; strain 10837, read-out: MIC): 16 µg/mL (≈ 39.7 µM); MIC (Bacteroides fragilis; strain 107266, read-out: MIC): 4 µg/mL (≈ 9.91 µM); MIC (Bacteroides fragilis; strain 107268, read-out: MIC): 16 µg/mL (≈ 39.7 µM); MIC (Bacteroides fragilis; strain 108133, read-out: MIC): 16 µg/mL (≈ 39.7 µM)
4 | CC1=C(C(=O)O)N2C(=O)C(NC(=O)[C@H](N)c3csc4ccc(Cl)cc34)C2SC1 (stereo partly drawn) [Ex. 38B, D-7-(5-chloro-3-benzothienyl)glycylamido-3-methyl-3-cephem-4-carboxylic acid] |  |  | 4 µg/mL (≈ 9.13 µM) | 1 µg/mL (≈ 2.28 µM) | 8 µg/mL (≈ 18.3 µM) | 64 µg/mL (≈ 146 µM) | 64 µg/mL (≈ 146 µM) | 64 µg/mL (≈ 146 µM) | 64 µg/mL (≈ 146 µM) | 2 µg/mL (≈ 4.57 µM) | 64 µg/mL (≈ 146 µM) | 2 µg/mL (≈ 4.57 µM) | 4 µg/mL (≈ 9.13 µM) | 0.25 µg/mL (≈ 0.571 µM) | 32 µg/mL (≈ 73.1 µM) | 64 µg/mL (≈ 146 µM) | 0.25 µg/mL (≈ 0.571 µM) |  |  |  | 
5 | CC1(C)S[C@@H]2[C@H](NC(=O)[C@H](N)c3ccccc3)C(=O)N2[C@H]1C(=O)O [Ampicillin, reference compound] | 16 µg/mL (≈ 45.8 µM) | 0.5 µg/mL (≈ 1.43 µM) |  |  |  | 4 µg/mL (≈ 11.4 µM) | 8 µg/mL (≈ 22.9 µM) |  |  |  |  |  |  |  |  | 4 µg/mL (≈ 11.4 µM) |  |  |  |  | 
6 | CC1=C(C(=O)O)N2C(=O)[C@@H](NC(=O)[C@H](N)c3ccccc3)[C@H]2SC1 [Cephalexin] |  |  |  | 4 µg/mL (≈ 11.5 µM) |  | 4 µg/mL (≈ 11.5 µM) |  |  |  |  |  |  |  |  |  |  |  | 12 µg/mL (≈ 34.5 µM) | 22 µg/mL (≈ 63.3 µM) | 16 µg/mL (≈ 46.1 µM) | MIC (Staph. aureus; read-out: Agar Dilution MIC): 128 µg/mL (≈ 368 µM); MIC (Haemophilus influenzae; strain 105): 4 µg/mL (≈ 11.5 µM); MIC (Klebsiella): 128 µg/mL (≈ 368 µM); MIC (Bacteroides fragilis; [6]): 34 µg/mL (≈ 97.9 µM); MIC (Bacteroides fragilis; [5]): 40 µg/mL (≈ 115 µM); MIC (Bacteroides fragilis; strain 180-821, read-out: MIC): 16 µg/mL (≈ 46.1 µM); MIC (Bacteroides fragilis; strain 10668, read-out: MIC): > 64 µg/mL; MIC (Bacteroides fragilis; strain 10683, read-out: MIC): > 64 µg/mL; MIC (Bacteroides fragilis; strain 10695, read-out: MIC): 64 µg/mL (≈ 184 µM); MIC (Bacteroides fragilis; strain 10732, read-out: MIC): 32 µg/mL (≈ 92.1 µM); MIC (Bacteroides fragilis; strain 10750, read-out: MIC): 64 µg/mL (≈ 184 µM); MIC (Bacteroides fragilis; strain 10774, read-out: MIC): > 64 µg/mL; MIC (Bacteroides fragilis; strain 10817, read-out: MIC): 16 µg/mL (≈ 46.1 µM); MIC (Bacteroides fragilis; strain 10837, read-out: MIC): 16 µg/mL (≈ 46.1 µM); MIC (Bacteroides fragilis; strain 107266, read-out: MIC): 32 µg/mL (≈ 92.1 µM); MIC (Bacteroides fragilis; strain 107268, read-out: MIC): 16 µg/mL (≈ 46.1 µM); MIC (Bacteroides fragilis; strain 108133, read-out: MIC): 32 µg/mL (≈ 92.1 µM); MIC (Strep. D): 128 µg/mL (≈ 368 µM); Agar Dilution MIC (Strep. D; strain 2041): 128 µg/mL; MIC (Strep. A): 0.5 µg/mL (≈ 1.44 µM)
